# Laboratory results: patent US20020022619A1, “Tricyclic fused pyridine and pyrimidine derivatives as CRF antagonists” (priority 2000, published 2002)
# Assays:
# [1] = tested on: “anxiogenic” effects of CRF; settings: cited from earlier work; for effect on the “anxiogenic” effects / actions of CRF in the conflict test: rats, given with CRF
SMILES,melting point [°C],effect on the “anxiogenic” effects / actions of CRF in the conflict test [1],"behavioral activity alone in the operant conflict test ([1]; compound alone, without CRF)"
"CCN1CCCn2c(=O)n(-c3ccc(C(C)C)cc3Br)c3nc(C)nc1c32 [Example 1, 2-(2-Bromo-4-isopropyl-phenyl)-6-ethyl-4-methyl-6,7,8,9-tetrahydro-2H-2,3,5,6,9a-pentaaza-benzo[cd]azulen-1-one]",144.5 to 146,–,–
CNC(=O)c1cc2c(cn1)[nH]c1ccccc12 [FG7142],–,enhanced the actions of CRF,–
CCOC(=O)c1ncn2c1CN(C)C(=O)c1cc(F)ccc1-2 [Ro15-1788],–,reversed the effects of CRF in a dose-dependent manner,without behavioral activity alone
